# Assay: Water solubility / water-dispersability, including FIG. 1 comparison
# Format: physicochemical
# Details: dispersed in water, bottle A vs bottle B
smiles,measurement,value
"Cc1coc2c1C(=O)C(=O)c1c-2ccc2c1CCCC2(C)C [known 90% Tan IIA, Tanshinone IIA]",Water-dispersability (FIG. 1),insoluble in water
